Measured values reported in publication PMC11997127 (Scientific Reports, 2025).

Legend:
[1] = target: T1, Staphylococcus aureus lipase (SAL) (Staphylococcus aureus, UniProt Q2G155); experiment: pNPB hydrolysis assay; type: biochemical
[2] = target: T1, Staphylococcus aureus lipase (SAL); experiment: X-ray co-crystal structures; type: biochemical

T1 sequence (Q2G155 297-690): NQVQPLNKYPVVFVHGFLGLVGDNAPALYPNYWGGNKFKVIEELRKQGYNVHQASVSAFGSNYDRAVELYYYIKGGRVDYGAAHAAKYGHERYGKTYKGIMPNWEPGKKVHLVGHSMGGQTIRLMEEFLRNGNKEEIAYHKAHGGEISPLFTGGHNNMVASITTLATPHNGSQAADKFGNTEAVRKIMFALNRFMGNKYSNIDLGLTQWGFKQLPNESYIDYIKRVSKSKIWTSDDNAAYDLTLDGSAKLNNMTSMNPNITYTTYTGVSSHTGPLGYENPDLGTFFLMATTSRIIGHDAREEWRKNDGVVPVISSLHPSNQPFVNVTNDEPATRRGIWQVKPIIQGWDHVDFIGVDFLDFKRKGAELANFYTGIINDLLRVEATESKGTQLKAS

Row | SMILES | IC50 [1] [µM] | IC50 [2] [µM]
1 | O=c1[nH]c2ccccc2n1C1CCN(CCCC(c2ccc(F)cc2)c2ccc(F)cc2)CC1 [pimozide, 3-[1-[4,4-bis(4-fluorophenyl)butyl]piperidin-4-yl]-1H-benzimidazol-2-one] | ~48.5 | 
2 | OC1(c2ccc(Cl)c(C(F)(F)F)c2)CCN(CCCC(c2ccc(F)cc2)c2ccc(F)cc2)CC1 [penfluridol, 1-[4,4-bis(4-fluorophenyl)butyl]-4-[4-chloro-3-(trifluoromethyl)phenyl]piperidin-4-ol] |  | 7.3
